The source made the active and inactive calls. The rule behind the calls is not given here.
Tested on: CCRIS mutagenicity, Ames/micronucleus/aberration tests
Experiment: CCRIS mutagenicity studies
[1] = Test System: AMES SALMONELLA TYPHIMURIUM, Strain/Indicator: TA98, Metabolic Activation: NONE, Method: PREINCUBATION
[2] = Test System: AMES SALMONELLA TYPHIMURIUM, Strain/Indicator: TA1535, Metabolic Activation: NONE, Method: PREINCUBATION
[3] = Test System: AMES SALMONELLA TYPHIMURIUM, Strain/Indicator: TA1537, Metabolic Activation: NONE, Method: PREINCUBATION
[4] = Test System: AMES SALMONELLA TYPHIMURIUM, Strain/Indicator: TA100, Metabolic Activation: NONE, Method: PREINCUBATION

Nc1ccc(N)c2ccccc12 was tested, and the mutagenic call (Test System: AMES SALMONELLA TYPHIMURIUM, Strain/Indicator: TA98, Metabolic Activation: HAMSTER, LIVER, S-9, AROCLOR 1254 (5%), Method: PREINCUBATION) was “inactive; negative”, the mutagenic call (Test System: AMES SALMONELLA TYPHIMURIUM, Strain/Indicator: TA98, Metabolic Activation: HAMSTER, LIVER, S-9, AROCLOR 1254 (30%), Method: PREINCUBATION) was “active; positive” and the mutagenic call [1] was “inactive; negative”. For the same compound, the mutagenic call (Test System: AMES SALMONELLA TYPHIMURIUM, Strain/Indicator: TA98, Metabolic Activation: RAT, LIVER, S-9, AROCLOR 1254 (5, 10 OR 30%), Method: PREINCUBATION) was “inactive; negative”, the mutagenic call (Test System: AMES SALMONELLA TYPHIMURIUM, Strain/Indicator: TA98, Metabolic Activation: RAT, LIVER, S-9, AROCLOR 1254 (10%), Method: PREINCUBATION) was “inactive; negative” and the mutagenic call (Test System: AMES SALMONELLA TYPHIMURIUM, Strain/Indicator: TA100, Metabolic Activation: HAMSTER, LIVER, S-9, AROCLOR 1254 (5%), Method: PREINCUBATION) was “inactive; negative”. For the same compound, the mutagenic call (Test System: AMES SALMONELLA TYPHIMURIUM, Strain/Indicator: TA100, Metabolic Activation: HAMSTER, LIVER, S-9, AROCLOR 1254 (30%), Method: PREINCUBATION) was “active; positive”, the mutagenic call (Test System: AMES SALMONELLA TYPHIMURIUM, Strain/Indicator: TA100, Metabolic Activation: RAT, LIVER, S-9, AROCLOR 1254 (5, 10 OR 30%), Method: PREINCUBATION) was “inactive; negative” and the mutagenic call (Test System: AMES SALMONELLA TYPHIMURIUM, Strain/Indicator: TA100, Metabolic Activation: RAT, LIVER, S-9, AROCLOR 1254 (10%), Method: PREINCUBATION) was “inactive; negative”. The mutagenic call (Test System: AMES SALMONELLA TYPHIMURIUM, Strain/Indicator: TA1535, Metabolic Activation: HAMSTER, LIVER, S-9, AROCLOR 1254 (10%), Method: PREINCUBATION) was “inactive; negative”, the mutagenic call [2] was “inactive; negative” and the mutagenic call (Test System: AMES SALMONELLA TYPHIMURIUM, Strain/Indicator: TA1535, Metabolic Activation: RAT, LIVER, S-9, AROCLOR 1254 (10%), Method: PREINCUBATION) was “inactive; negative”. The mutagenic call (Test System: AMES SALMONELLA TYPHIMURIUM, Strain/Indicator: TA1537, Metabolic Activation: HAMSTER, LIVER, S-9, AROCLOR 1254 (10%), Method: PREINCUBATION) was “inactive; negative”, the mutagenic call [3] was “inactive; negative” and the mutagenic call (Test System: AMES SALMONELLA TYPHIMURIUM, Strain/Indicator: TA1537, Metabolic Activation: RAT, LIVER, S-9, AROCLOR 1254 (10%), Method: PREINCUBATION) was “inactive; negative”.

For CC(=O)OCC(COC(C)=O)OC(C)=O, the mutagenic call (Test System: Ames Salmonella typhimurium, Strain/Indicator: TA98, Metabolic Activation: None, Method: Preincubation) was “inactive; negative”, the mutagenic call (Test System: Ames Salmonella typhimurium, Strain/Indicator: TA98, Metabolic Activation: Rat, Liver, S9, Sodium phenobarbital and 5,6-benzoflavone, Method: Preincubation) was “inactive; negative” and the mutagenic call (Test System: Ames Salmonella typhimurium, Strain/Indicator: TA100, Metabolic Activation: None, Method: Preincubation) was “inactive; negative”. For the same compound, the mutagenic call (Test System: Ames Salmonella typhimurium, Strain/Indicator: TA100, Metabolic Activation: Rat, Liver, S9, Sodium phenobarbital and 5,6-benzoflavone, Method: Preincubation) was “inactive; negative”, the mutagenic call (Test System: Ames Salmonella typhimurium, Strain/Indicator: TA1535, Metabolic Activation: None, Method: Preincubation) was “inactive; negative” and the mutagenic call (Test System: Ames Salmonella typhimurium, Strain/Indicator: TA1535, Metabolic Activation: Rat, Liver, S9, Sodium phenobarbital and 5,6-benzoflavone, Method: Preincubation) was “inactive; negative”. For the same compound, the mutagenic call (Test System: Ames Salmonella typhimurium, Strain/Indicator: TA1537, Metabolic Activation: None, Method: Preincubation) was “inactive; negative”, the mutagenic call (Test System: Ames Salmonella typhimurium, Strain/Indicator: TA1537, Metabolic Activation: Rat, Liver, S9, Sodium phenobarbital and 5,6-benzoflavone, Method: Preincubation) was “inactive; negative” and the mutagenic call (Test System: E. coli, Strain/Indicator: WP2uvrA/pKM101, Metabolic Activation: None, Method: Preincubation) was “inactive; negative”. The mutagenic call (Test System: E. coli, Strain/Indicator: WP2uvrA/pKM101, Metabolic Activation: Rat, Liver, S9, Sodium phenobarbital and 5,6-benzoflavone, Method: Preincubation) was “inactive; negative”.

For CC\C=C/C=C\C=C/C=C\C=C/C=C\OCC(O)CO (centres undefined), the mutagenic call [4] was “active; positive”.

Oc1cc2c(cc1O)[C@@H]1c3ccc(O)c(O)c3OC[C@]1(O)C2 was tested, and the mutagenic call (Test System: AMES SALMONELLA TYPHIMURIUM, Strain/Indicator: TA98, Metabolic Activation: HAMSTER, LIVER, S-9, AROCLOR 1254, Method: PREINCUBATION) was “inactive; negative”, the mutagenic call [1] was “inactive; negative” and the mutagenic call (Test System: AMES SALMONELLA TYPHIMURIUM, Strain/Indicator: TA98, Metabolic Activation: RAT, LIVER, S-9, AROCLOR 1254, Method: PREINCUBATION) was “inactive; negative”. The mutagenic call (Test System: AMES SALMONELLA TYPHIMURIUM, Strain/Indicator: TA100, Metabolic Activation: HAMSTER, LIVER, S-9, AROCLOR 1254, Method: PREINCUBATION) was “inactive; negative”, the mutagenic call [4] was “inactive; negative” and the mutagenic call (Test System: AMES SALMONELLA TYPHIMURIUM, Strain/Indicator: TA100, Metabolic Activation: RAT, LIVER, S-9, AROCLOR 1254, Method: PREINCUBATION) was “inactive; negative”. For the same compound, the mutagenic call (Test System: AMES SALMONELLA TYPHIMURIUM, Strain/Indicator: TA1535, Metabolic Activation: HAMSTER, LIVER, S-9, AROCLOR 1254, Method: PREINCUBATION) was “inactive; negative”, the mutagenic call [2] was “inactive; negative” and the mutagenic call (Test System: AMES SALMONELLA TYPHIMURIUM, Strain/Indicator: TA1535, Metabolic Activation: RAT, LIVER, S-9, AROCLOR 1254, Method: PREINCUBATION) was “inactive; negative”. For the same compound, the mutagenic call (Test System: AMES SALMONELLA TYPHIMURIUM, Strain/Indicator: TA1537, Metabolic Activation: HAMSTER, LIVER, S-9, AROCLOR 1254, Method: PREINCUBATION) was “inactive; negative”, the mutagenic call [3] was “inactive; negative” and the mutagenic call (Test System: AMES SALMONELLA TYPHIMURIUM, Strain/Indicator: TA1537, Metabolic Activation: RAT, LIVER, S-9, AROCLOR 1254, Method: PREINCUBATION) was “inactive; negative”.

In the case of COC(=O)C1=C(C)NC(COC(N)=O)=C(C(=O)OC(C)C)C1c1cccc(Cl)c1Cl (centres undefined), the mutagenic call [1] is reported as “inactive; negative”, the mutagenic call (Test System: AMES SALMONELLA TYPHIMURIUM, Strain/Indicator: TA98, Metabolic Activation: RAT, LIVER, S-9, PHENOBARBITAL AND 5,6-BENZOFLAVONE, Method: PREINCUBATION) is reported as “inactive; negative” and the mutagenic call [4] is reported as “inactive; negative”. The mutagenic call (Test System: AMES SALMONELLA TYPHIMURIUM, Strain/Indicator: TA100, Metabolic Activation: RAT, LIVER, S-9, PHENOBARBITAL AND 5,6-BENZOFLAVONE, Method: PREINCUBATION) was “inactive; negative”, the mutagenic call [2] was “inactive; negative” and the mutagenic call (Test System: AMES SALMONELLA TYPHIMURIUM, Strain/Indicator: TA1535, Metabolic Activation: RAT, LIVER, S-9, PHENOBARBITAL AND 5,6-BENZOFLAVONE, Method: PREINCUBATION) was “inactive; negative”. For the same compound, the mutagenic call [3] was “inactive; negative”, the mutagenic call (Test System: AMES SALMONELLA TYPHIMURIUM, Strain/Indicator: TA1537, Metabolic Activation: RAT, LIVER, S-9, PHENOBARBITAL AND 5,6-BENZOFLAVONE, Method: PREINCUBATION) was “inactive; negative” and the mutagenic call (Test System: E. COLI, Strain/Indicator: WP2 UVRA, Metabolic Activation: NONE, Method: PREINCUBATION) was “inactive; negative”. For the same compound, the mutagenic call (Test System: E. COLI, Strain/Indicator: WP2 UVRA, Metabolic Activation: RAT, LIVER, S-9, PHENOBARBITAL AND 5,6-BENZOFLAVONE, Method: PREINCUBATION) was “inactive; negative”.

With Cc1cnc2cc3nc(C)n(C)c3c(C)c2n1 the mutagenic call (Test System: AMES SALMONELLA TYPHIMURIUM, Strain/Indicator: TA98, Metabolic Activation: S-9, Method: PREINCUBATION) was “inactive; negative”.

From PubChem BioAssay AID1259407 (Chemical Carcinogenesis Research Information System (CCRIS), 2018)
